# From patent US12377110B2, “Fospropofol methods and compositions” (Epalex Corporation, priority 2019, dated 2025)
# Assay: Study A16 Part 1: PK of single ascending oral doses of fospropofol disodium (200 to 2000 mg), fasted healthy adults
# Format: in vivo, human
# Settings: single dose of 800 mg (four 200 mg capsules)
# Protocol: Part 1 of Study A16 was a double-blind, randomized, placebo-controlled study to investigate the safety-tolerability and PK of oral administration of single ascending doses of fospropofol disodium to healthy adult male and female volunteers.
# Subjects were healthy adults (age 18-55 years inclusive, BMI 18-29.9 kg/m^2). Separate cohorts of 12 subjects each were randomized to receive fospropofol disodium at doses of 200, 400, 800, 1000, 1200, 1600, or 2000 mg (n=10 per cohort) or matching placebo (n=2 per cohort).
# Subjects were admitted to the clinical unit for an overnight fast (Day −1), administered study drug on Day 1, and remained in the clinical unit until Day 2.
# Fospropofol disodium was formulated as powder in an HPMC capsule, each capsule containing 200 mg of fospropofol disodium (weight adjusted for water content). Placebo was administered as an appropriate number of matching capsules.
# Based on PK results from the early cohorts, sampling times were optimized beginning with Cohort 3 (800 mg) to preclose, 5, 10, 15, 20, 25, 30, 37, and 45, minutes and 1, 2, 4, 6, and 9 hours after closing.
structure (smiles),measurement,value
CC(C)c1cccc(C(C)C)c1OCOP(=O)([O-])O.[Na+] [fospropofol disodium],Tolerability of propofol exposures,well-tolerated
